Assay results from patent US9617244B2, “Antibacterial quinoline derivatives” (JANSSEN PHARMACEUTICA NV, priority 2012, dated 2017).
In brackets after ≈: the same amount, converted by molar mass. Counter-ions that a name gives are not always drawn.

Tested on: Staphylococcus aureus (ATCC29213)
Test: In-vitro anti-bacterial activity, microtitre plate assay, IC90 determination (non-mycobacterial strains)
Assay type: cell-based
Settings: Staphylococcus aureus, ATCC29213, 24 h, 90% inhibitory concentration for bacterial growth, resazurin fluorescence, read-out: IC90 STA B29213
How it was run: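 Inoculum of about 100 TCID50 (10–60 CFU/well) in Mueller-Hinton broth, serial five-fold compound dilutions, 24 h at 37 °C in air. Growth read by resazurin fluorescence (ex 530/em 590 nm); IC90 in μg/ml as 90% growth inhibition.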

SMILES | IC90 [µg/mL]
COc1nc2ccc(SC)cc2cc1[C@@H](c1ccc(Cl)cc1)C1(O)CCNCC1(C)C (stereo in doubt) [Compound 62] | 5.75 (≈ 12.6 µM)
COc1nc2ccc(Cl)cc2cc1C(c1ccc(Cl)cc1)C1(O)CCN(C(C)c2ccccc2)C(CO)C1 (stereo not shown) [Compound 9] | 4.92 (≈ 8.92 µM)
COc1nc2ccc(Br)cc2cc1C(c1ccc(Cl)cc1)C1(O)CCNC(C)C1 (stereo not shown) [Compound 11] | 3 (≈ 6.3 µM)
COc1nc2ccc(Cl)cc2cc1C(c1ccc(Cl)cc1)C1(O)CCNC(CO)C1 (stereo not shown) [Compound 12] | 7.09 (≈ 15.8 µM)
COc1nc2ccc(F)cc2cc1C(c1ccc(Cl)cc1)C1(O)CCN(C(C)c2ccccc2)C(CO)C1 (stereo not shown) [Compound 13] | 8.48 (≈ 15.8 µM)
O=c1[nH]c2ccc(Cl)cc2cc1C(c1ccc(Cl)cc1)C1(O)CCNC(CO)C1 (stereo not shown) [Compound 20] | > 10.9
COc1nc2ccc(F)cc2cc1C(c1ccccc1)C1(O)CCNC(CO)C1 (stereo not shown) [Compound 29] | > 9.96
COc1nc2ccc(Br)cc2cc1C(c1ccc(Cl)cc1)C1(O)CCNC(Cc2ccccc2)C1 (stereo not shown) [Compound 31] | 3.48 (≈ 6.31 µM)
COc1nc2ccc(-c3cccnc3)cc2cc1C(c1cccc(Cl)c1)C1(O)CCNC(Cc2ccccc2)C1 (stereo not shown) [Compound 36] | 3.47 (≈ 6.31 µM)
COc1nc2ccc(Br)cc2cc1C(c1ccc(Cl)cc1)C1(O)CCNC(Cc2ccccn2)C1 (stereo not shown) [Compound 60] | 2.77 (≈ 5.01 µM)
COc1nc2ccc(S(C)(=O)=O)cc2cc1C(c1ccc(Cl)cc1)C1(O)CCNCC1Cc1cccc[n+]1[O-] (stereo not shown) [Compound 65] | > 14.3
O=c1[nH]c2ccc(Br)cc2cc1C(c1ccc(Cl)cc1)C1(O)CCNC(Cc2ccccc2)C1 (stereo not shown) [Compound 81] | 8.52 (≈ 15.8 µM)
COc1nc2ccc(F)cc2cc1C(c1ccc(Cl)cc1)C1(O)CCN(C(C)c2ccccc2)C(CO)C1 (stereo not shown) [Compound 436] | 13.4 (≈ 25.1 µM)

Tested on: Mycobacterium smegmatis (ATCC607)
Test: In-vitro anti-bacterial activity against strain M. Smegmatis ATCC607
Assay type: cell-based
Settings: 90% inhibitory concentration for bacterial growth, 48 hours, Alamar Blue fluorescence
How it was run: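 Serial five-fold compound dilutions in BSA-supplemented wells, inoculated with ~250 CFU/well in Mueller-Hinton broth, incubated 48 h at 37 °C, 5% CO2. Growth read by Alamar Blue fluorescence (ex 530/em 590 nm); IC90 in μg/ml.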

SMILES | IC90 MSM 607 [µg/mL]
COc1nc2ccc(Br)cc2cc1C(c1ccc(Cl)cc1)C1(O)CCNC(Cc2ccccc2)C1 (stereo not shown) [Compound 31] | 1.90 (≈ 3.44 µM)
COc1nc2ccc(Br)cc2cc1C(c1ccc(Cl)cc1)C1(O)CCNC(Cc2ccccn2)C1 (stereo not shown) [Compound 60] | 1.39 (≈ 2.51 µM)

Same assay, conditions: Mycolicibacterium smegmatis, ATCC607, 48 h, 90% inhibitory concentration for bacterial growth, Alamar Blue fluorescence, read-out: IC90 MSM 607

SMILES | IC90 [µg/mL]
COc1nc2ccc(SC)cc2cc1[C@@H](c1ccc(Cl)cc1)C1(O)CCNCC1(C)C (stereo in doubt) [Compound 62] | 4.57 (≈ 10 µM)
COc1nc2ccc(Cl)cc2cc1C(c1ccc(Cl)cc1)C1(O)CCN(C(C)c2ccccc2)C(CO)C1 (stereo not shown) [Compound 9] | 3.48 (≈ 6.31 µM)
COc1nc2ccc(Br)cc2cc1C(c1ccc(Cl)cc1)C1(O)CCNC(C)C1 (stereo not shown) [Compound 11] | 3 (≈ 6.3 µM)
COc1nc2ccc(Cl)cc2cc1C(c1ccc(Cl)cc1)C1(O)CCNC(CO)C1 (stereo not shown) [Compound 12] | 2.82 (≈ 6.3 µM)
COc1nc2ccc(F)cc2cc1C(c1ccc(Cl)cc1)C1(O)CCN(C(C)c2ccccc2)C(CO)C1 (stereo not shown) [Compound 13] | 4.77 (≈ 8.91 µM)
COc1nc2ccc(-c3cccnc3)cc2cc1C(c1cccc(Cl)c1)C1(O)CCNC(Cc2ccccc2)C1 (stereo not shown) [Compound 36] | 2.19 (≈ 3.98 µM)
COc1nc2ccc(S(C)(=O)=O)cc2cc1C(c1ccc(Cl)cc1)C1(O)CCNCC1Cc1cccc[n+]1[O-] (stereo not shown) [Compound 65] | > 14.3

Tested on: not given
Test: not given
Settings: not given

SMILES | melting point [°C]
COc1nc2ccc(Br)cc2cc1C(c1ccc(Cl)cc1)C1(O)CCNC(Cc2ccc(F)cc2F)C1 (stereo not shown) (as salt: trifluoroacetate) [Compound 319] | 169
COc1nc2ccc(S(C)(=O)=O)cc2cc1C(c1cccc(Cl)c1)C1(O)CCNC(Cc2ccc(F)cc2F)C1 (stereo not shown) (as salt: trifluoroacetate) [Compound 325] | 144
COc1nc2ccc(S(C)(=O)=O)cc2cc1C(c1cccc(Cl)c1)C1(O)CCNC(Cc2ccc(F)cc2F)C1 (stereo not shown) (as salt: trifluoroacetate) [Compound 326] | 166
COc1nc2ccc(Br)cc2cc1C(n1cccn1)[C@@]1(O)CCN[C@H](Cc2ccccc2)C1 (stereo in doubt) (as salt: fumarate) [Compound 67] | 245
CS(=O)(=O)c1ccc2[nH]c(=O)c(C(c3ccc(Cl)cc3)C3(O)CCN[C@@H](Cc4ccc(F)c(F)c4)C3)cc2c1 (stereo in doubt) (as salt: hydrochloride) [Compound 205] | > 250
CS(=O)(=O)c1ccc2[nH]c(=O)c(C(c3ccc(Cl)cc3)C3(O)CCN[C@@H](Cc4ccc(F)c(F)c4)C3)cc2c1 (stereo in doubt) (as salt: hydrochloride) [Compound 206] | 245
COc1nc2ccc(SC)cc2cc1[C@@H](c1ccc(Cl)cc1)C1(O)CCNCC1(C)C (stereo in doubt) [Compound 62] | 212
COc1nc2ccc(Cl)cc2cc1C(c1ccc(Cl)cc1)C1(O)CCN(C(C)c2ccccc2)C(CO)C1 (stereo not shown) [Compound 9] | 182
COc1nc2ccc(Br)cc2cc1C(c1ccc(Cl)cc1)C1(O)CCNC(C)C1 (stereo not shown) [Compound 11] | 143
COc1nc2ccc(Cl)cc2cc1C(c1ccc(Cl)cc1)C1(O)CCNC(CO)C1 (stereo not shown) [Compound 12] | 135
COc1nc2ccc(F)cc2cc1C(c1ccc(Cl)cc1)C1(O)CCN(C(C)c2ccccc2)C(CO)C1 (stereo not shown) [Compound 13] | 162
O=c1[nH]c2ccc(Cl)cc2cc1C(c1ccc(Cl)cc1)C1(O)CCNC(CO)C1 (stereo not shown) [Compound 20] | 232
COc1nc2ccc(F)cc2cc1C(c1ccccc1)C1(O)CCNC(CO)C1 (stereo not shown) [Compound 29] | 135
COc1nc2ccc(Br)cc2cc1C(c1ccc(Cl)cc1)C1(O)CCNC(Cc2ccccc2)C1 (stereo not shown) [Compound 31] | 183
COc1nc2ccc(-c3cccnc3)cc2cc1C(c1cccc(Cl)c1)C1(O)CCNC(Cc2ccccc2)C1 (stereo not shown) [Compound 36] | 120
COc1nc2ccc(Br)cc2cc1C(c1ccc(Cl)cc1)C1(O)CCNC(Cc2ccccn2)C1 (stereo not shown) [Compound 60] | 161
COc1nc2ccc(S(C)(=O)=O)cc2cc1C(c1ccc(Cl)cc1)C1(O)CCNCC1Cc1cccc[n+]1[O-] (stereo not shown) [Compound 65] | 240
COc1nc2ccc(Br)cc2cc1C(c1ccccc1)C1(O)CCNC(Cc2ccccc2)C1 (stereo not shown) [Compound 74] | 157
COc1nc2ccc(Br)cc2cc1C(c1ccc(Cl)cc1)C1(O)CCN(Cc2ccccc2)C(Cc2ccccc2)C1 (stereo not shown) [Compound 75] | 192
COc1nc2ccc(Br)cc2cc1C(c1ccc(Cl)cc1)C1(O)CCNC(Cc2ccccc2)C1 (stereo not shown) [Compound 78] | 130
O=c1[nH]c2ccc(Br)cc2cc1C(c1ccc(Cl)cc1)C1(O)CCNC(Cc2ccccc2)C1 (stereo not shown) [Compound 81] | 233
COc1nc2ccc(Br)cc2cc1C(c1ccc(Cl)cc1)C1(O)CCNC(Cc2ccc(F)c(F)c2)C1 (stereo not shown) [Compound 111] | 111
COc1nc2ccc(Br)cc2cc1C(c1ccc(Cl)cc1)C1(O)CCNC(C)C1 (stereo not shown) [Compound 123] | 210
COc1nc2ccc(F)cc2cc1C(c1ccc(Cl)cc1)C1(O)CCN(C(C)c2ccccc2)C(CO)C1 (stereo not shown) [Compound 436] | 135
